Measurements reported in patent US8632792B2, “Cooling sensation agent composition and sensory stimulation agent composition” (Takasago International Corporation, priority 2008, dated 2014).

Experiments:
professional examiners = experiment: Cooling treated towel (direct spraying), organoleptic ranking of cooling action; format: in vivo; conditions: for cooling action (in words), strength and consistency: comparison over 10 min to 24 hr, within the compound class
Description: 1% ethanol solution of each of di-1-menthyl carbonate, di-1-isopulegol carbonate, 1-menthyl-1-menthoxy ethyl carbonate, 1-menthyl-1-isopulegol carbonate, 1-menthoxypropanediol methylheptenone ketal, 1-menthoxypropanediol benzaldehyde acetal, 1-menthoxypropanediol-l-citronellal acetal, menthyl palmitate, menthyl stearate, menthyl isostearate, 1-menthol, and an equivalent-weight mixture of 1-menthyl-menthoxy ethyl carbonate, menthoxypropanediol citronellal acetal and menthyl isostearate was prepared. The solution was sprayed on a pure cotton hand towel (white plain towel made in Japan, 20 cm×20 cm, degrease-finished) in an amount of 1 g. After the towel was air-dried for 10 minutes, 3 hours, or 24 hours, the cooling action of each towel was determined organoleptically. Fifteen professional examiners with 5 years or more of experience are divided into three groups; different 5 kinds of samples were ranked from the strongest to weakest in action respectively by the examiners in three groups; and the result was shown by the sum of the ranking numbers.

internal bronchia = experiment: Cooling towel (washing processed), organoleptic ranking of cooling action; format: in vivo; conditions: for sum of the ranking numbers (cooling effect on treated hand towel after washing): 1% in base washing detergent, low sum = strong; for cooling action (in words), strength and durability: washing processed towel, comparison within the compound class
Description: (§1) Each of di-1-menthyl carbonate, di-1-isopulegol carbonate, 1-menthyl-1-menthoxy ethyl carbonate, 1-menthyl-1-isopulegol carbonate, 1-menthoxypropanediol benzaldehyde acetal, 1-menthoxypropanediol methylheptenone ketal, 1-menthoxypropanediol-1-citronellal acetal, menthyl palmitate, menthyl stearate, menthyl isostearate, 1-menthoxypropanediol, and an equivalent-weight mixture of 1-menthyl-menthoxy ethyl carbonate, menthoxypropanediol citronellal acetal and menthyl isostearate was compounded with a base washing detergent solution at a concentration of 1%.
(§2) A pure cotton hand towel (white plain towel made in Japan, 20 cm×20 cm, degrease-finished) was hand-washed for 3 minutes at a particular concentration (water: 10 L, detergent: 3 g, water temperature: 17° C.), then washed with the same amount of water for 2 minutes, squeezed lightly, and air-dried indoor for 6 hours. The hand towels prepared, the hand towels after 24 hours and the hand towels after 48 hours were brought into contact with the internal bronchia and the cooling action thereof was determined organoleptically. The determination was conducted as same as Example 1, that is, […] professional examiners are divided into three groups; different 5 kinds of samples were ranked from the strongest to weakest in action respectively by the examiners in three groups; and the result was shown by the sum of the ranking numbers.

[1] = as above; format: in vivo; conditions: after washing treatment and air drying for 6 hours
Description: as §1, §2

[2] = Group A, air-dried 10 min, 1 g of 1% ethanol solution sprayed on cotton towel, ranked strongest to weakest (low sum = strong)
[3] = Group A, air-dried 3 hr, 1% ethanol solution, low sum = strong
[4] = Group A, air-dried 24 hr, 1% ethanol solution, low sum = strong
[5] = Group B, air-dried 10 min, 1% ethanol solution, low sum = strong
[6] = Group B, air-dried 3 hr, 1% ethanol solution, low sum = strong
[7] = Group B, air-dried 24 hr, 1% ethanol solution, low sum = strong
[8] = Group B, 24 hr (third time point)
[9] = Group C, air-dried 10 min, 1% ethanol solution, low sum = strong
[10] = Group C, air-dried 3 hr, 1% ethanol solution, low sum = strong
[11] = Group C, air-dried 24 hr, 1% ethanol solution, low sum = strong

| SMILES | sum of the ranking numbers (cooling effect on treated hand towel at direct spraying) (professional examiners; [2]) | sum of the ranking numbers (cooling effect on treated hand towel at direct spraying) (professional examiners; [3]) | sum of the ranking numbers (cooling effect on treated hand towel at direct spraying) (professional examiners; [4]) | sum of the ranking numbers (cooling effect on treated hand towel after washing) (internal bronchia; Group A, 6 hr) | sum of the ranking numbers (cooling effect on treated hand towel after washing) (internal bronchia; Group A, 24 hr) | sum of the ranking numbers (cooling effect on treated hand towel after washing) (internal bronchia; Group A, 48 hr) | sum of the ranking numbers (cooling effect on treated hand towel at direct spraying) (professional examiners; [5]) | sum of the ranking numbers (cooling effect on treated hand towel at direct spraying) (professional examiners; [6]) | sum of the ranking numbers (cooling effect on treated hand towel at direct spraying) (professional examiners; [7]) | sum of the ranking numbers (cooling effect on treated hand towel after washing) (internal bronchia; Group B, 6 hr) | sum of the ranking numbers (cooling effect on treated hand towel after washing) (internal bronchia; [8]) | sum of the ranking numbers (cooling effect on treated hand towel after washing) (internal bronchia; Group B, 24 hr) | also measured |
| --- | --- | --- | --- | --- | --- | --- | --- | --- | --- | --- | --- | --- | --- |
| C=C(C)[C@@H]1CC[C@@H](C)C[C@H]1OC(=O)O[C@@H]1C[C@H](C)CC[C@H]1C(=C)C [Di-l-isopulegol carbonate, di-1-isopulegol carbonate] | 17 | 12 | 11 | 14 | 13 | 14 |  |  |  |  |  |  | melting point: 86 to 87 °C |
| C=C(C)[C@@H]1CC[C@@H](C)C[C@H]1OC(=O)O[C@@H]1C[C@H](C)CC[C@H]1C(C)C [l-Menthyl-l-isopulegol carbonate, 1-menthyl-1-isopulegol carbonate] | 19 | 1 | 14 | 12 | 12 | 11 |  |  |  |  |  |  |  |
| CC(C)=CCCC1(C)OCC(CO[C@@H]2C[C@H](C)CC[C@H]2C(C)C)O1 (some centres unmarked) [1-menthoxypropanediol methylheptenone ketal] |  |  |  |  |  |  | 13 | 6 | 6 | 10 | 10 | 11 | cooling action (in words), strength and consistency (professional examiners; direct spraying): strongest in action |
| CC(C)[C@@H]1CC[C@@H](C)C[C@H]1OCC1COC(c2ccccc2)O1 (some centres unmarked) [1-menthoxypropanediol benzaldehyde acetal] |  |  |  |  |  |  | 15 | 9 | 9 | 11 | 11 | 11 |  |
| CC(C)=CCC[C@H](C)CC1OCC(CO[C@@H]2C[C@H](C)CC[C@H]2C(C)C)O1 (some centres unmarked) [1-menthoxypropanediol-1-citronellal acetal] |  |  |  |  |  |  | 18 | 16 | 16 | 13 | 13 | 13 |  |
| CC(C)[C@@H]1CC[C@@H](C)C[C@H]1OCCOC(=O)O[C@@H]1C[C@H](C)CC[C@H]1C(C)C [l-Menthyl-l-menthoxy ethyl carbonate, 1-menthyl-1-menthoxy ethyl carbonate] | 10 | 5 | 5 | 8 | 7 | 7 |  |  |  |  |  |  | cooling action (in words), strength and consistency (professional examiners; direct spraying): superior both in initial strength and consistency; cooling action (in words), strength and durability (internal bronchia): strongest |
| CCCCCCCCCCCCCCCCCC(=O)OC1CC(C)CCC1C(C)C (centres unmarked) [Menthyl stearate, menthyl stearate] |  |  |  |  |  |  |  |  |  |  |  |  | sum of the ranking numbers (cooling effect on treated hand towel at direct spraying) (professional examiners; [9]): 21; sum of the ranking numbers (cooling effect on treated hand towel at direct spraying) (professional examiners; [10]): 15; sum of the ranking numbers (cooling effect on treated hand towel at direct spraying) (professional examiners; [11]): 17; sum of the ranking numbers (cooling effect on treated hand towel after washing) (internal bronchia; Group C, 6 hr): 21; sum of the ranking numbers (cooling effect on treated hand towel after washing) (internal bronchia; Group C, 24 hr): 18; sum of the ranking numbers (cooling effect on treated hand towel after washing) (internal bronchia; Group C, 48 hr): 17 |
| CCCCCCCCCCCCCCCC(=O)OC1CC(C)CCC1C(C)C (centres unmarked) [Menthyl palmitate, menthyl palmitate] |  |  |  |  |  |  |  |  |  |  |  |  | sum of the ranking numbers (cooling effect on treated hand towel at direct spraying) (professional examiners; [9]): 15; sum of the ranking numbers (cooling effect on treated hand towel at direct spraying) (professional examiners; [10]): 17; sum of the ranking numbers (cooling effect on treated hand towel at direct spraying) (professional examiners; [11]): 17; sum of the ranking numbers (cooling effect on treated hand towel after washing) (internal bronchia; Group C, 6 hr): 18; sum of the ranking numbers (cooling effect on treated hand towel after washing) (internal bronchia; Group C, 24 hr): 16; sum of the ranking numbers (cooling effect on treated hand towel after washing) (internal bronchia; Group C, 48 hr): 17 |
| CC1CCC(C(C)C)C(OCC(O)CO)C1 (centres unmarked) [1-menthoxypropanediol, reference compound] |  |  |  |  |  |  |  |  |  |  |  |  | cooling action (in words) [1]: did not have cooling action |
| CC(C)[C@@H]1CC[C@@H](C)C[C@H]1OC(=O)O[C@@H]1C[C@H](C)CC[C@H]1C(C)C [Di-l-menthyl carbonate, di-1-menthyl carbonate] | 24 | 21 | 20 | 16 | 18 | 18 | 24 | 19 | 19 | 16 | 16 | 15 | sum of the ranking numbers (cooling effect on treated hand towel at direct spraying) (professional examiners; [9]): 17; sum of the ranking numbers (cooling effect on treated hand towel at direct spraying) (professional examiners; [10]): 21; sum of the ranking numbers (cooling effect on treated hand towel at direct spraying) (professional examiners; [11]): 21; sum of the ranking numbers (cooling effect on treated hand towel after washing) (internal bronchia; Group C, 6 hr): 16; sum of the ranking numbers (cooling effect on treated hand towel after washing) (internal bronchia; Group C, 24 hr): 21; sum of the ranking numbers (cooling effect on treated hand towel after washing) (internal bronchia; Group C, 48 hr): 21; cooling action (in words), strength and durability (internal bronchia): weakest |
| CC(C)[C@@H]1CC[C@@H](C)C[C@H]1O [l-Menthol, 1-menthol, reference compound] | 5 | 24 | 25 | 25 | 25 | 25 | 5 | 25 | 25 | 25 | 25 | 25 | cooling action (in words) (professional examiners; direct spraying, after air drying for 10 minutes): strongest cooling action; cooling action (in words), strength and consistency (professional examiners; direct spraying): less consistent |
